Data: patent US20060293362A1, “Nitro-substituted hydroxyindoles, their use as inhibitors of phosphodiesterase 4, and processes for preparing them” (priority 2005, published 2006)

Experiments:
[1] = test system: pulmonary eosinophil infiltration; experiment: Inhibition of late-phase eosinophilia 48 h after inhalative ovalbumin challenge in actively sensitized Brown Norway rats; assay type: in vivo; details: 2 h prior to allergen challenge, BAL 48 h after challenge
Method: The inhibition exerted by the substances according to the invention on pulmonary eosinophil infiltration is examined in male Brown Norway rats (200-250 g) which have been actively sensitized against ovalbumin (OVA). The sensitization is effected by subcutaneously injecting a suspension of 10 μg of OVA, together with 20 mg of aluminium hydroxide as adjuvant, in 0.5 ml of physiological sodium chloride solution per animal on days 1, 14 and 21. In addition to this, each of the animals is injected at the same time with 0.25 ml of Bordetalla pertussis vaccine dilution i.p. On the 28th day of the experiment, the animals are placed individually in open 11 Plexiglass boxes which are connected to a head/nose exposure appliance. The animals are exposed to an aerosol consisting of a 1.0% suspension of ovalbumin (Allergen Challenge). The ovalbumin aerosol is generated using a compressed air (0.2 MPa)-driven nebulizer (Bird micro nebulizer, Palm Springs Calif., USA). The exposure time is 1 hour, with normal controls likewise being nebulized for 1 hour with an aerosol consisting of a 0.9% solution of sodium chloride.
48 hours after the allergen challenge, there is a massive immigration of eosinophilic granulocytes into the lungs of the animals. At this time, the animals are anaesthetized with an overdose of ethylurethane (1.5 g/kg of body weight, given i.p.) and a bronchoalveolar lavage (BAL) is carried out using 3×4 ml of Hank's balance solution. The total cell count, and the number of eosinophilic granulocytes, in the pooled BAL liquid are then determined using an automatic haemocytometer (Bayer Diagnostics Technicon H1E). For each animal, the eosinophils (EOS) in the BAL are calculated in 10^6/animal: EOS/μl×BAL recovery (ml)=EOS/animal. Two control groups (nebulization with physiological sodium chloride solution and nebulization with OVA solution) are included in each test.
The percentage inhibition of the eosinophilia in the substance-treated experimental group is calculated using the following formula: {((OVAC−SC)−(OVAD−SC))/(OVAC−SC)}×100%=% inhibition
(SC=control group treated with vehicle and challenged with 0.9% sodium chloride solution; OVAC=control group treated with vehicle and challenged with 1% of ovalbumin suspension; OVAD=experimental group treated with substance and challenged with 1% of ovalbumin suspension)
The test substances are administered 2 hours prior to the allergen challenge intraperitoneally or orally as a suspension in 10% polyethylene glycol 300 and 0.5% 5-hydroxyethyl cellulose or per inhalation as a mixture with lactose. The control groups are treated with the vehicle in accordance with the manner in which the test substance is administered.

[2] = test system: pulmonary neutrophil infiltration; experiment: Inhibition of lipopolysaccharide (LPS)-induced pulmonary neutrophilia in Lewis rats; assay type: in vivo; details: 2 h prior to LPS provocation, BAL 6 h after provocation
Method: The ability of the substances according to the invention to inhibit pulmonary neutrophil infiltration is examined in male Lewis rats (200-350 g). On the day of the experiment, the animals are placed individually in open 1 l Plexiglass boxes which are connected to a head/nose exposure appliance. The animals are exposed to an aerosol consisting of a suspension of lipopolysaccharide (100 μg of LPS/ml of 0.1% hydroxylamine solution) in PBS (LPS provocation). The LPS/hydroxylamine aerosol is generated using a compressed air (0.2 MPa)-driven nebulizer (Bird micro nebulizer, Palm Springs Calif., USA). The exposure time is 40 minutes, with normal controls likewise being nebulized for 40 minutes with an aerosol consisting of a 0.1% solution of hydroxylamine in PBS.
6 hours after the LPS provocation, there is a maximal and massive immigration of neutrophilic granulocytes into the lungs of the animals. At this time, the animals are anaesthetized with an overdose of ethylurethane (1.5 g/kg of body weight, given i.p.) and a bronchoalveolar lavage (BAL) is carried out using 3×4 ml of Hank's balance solution. The total cell count, and the number of neutrophilic granulocytes, in the pooled BAL liquid are then determined using an automatic haemocytometer (Bayer Diagnostics Technicon H1E). In the case of each animal, the neutrophils (NEUTRO) in the BAL are calculated in 10^6/animal: NEUTRO/μl×BAL recovery (ml)=NEUTRO/animal.
Two control groups (nebulization with a 0.1% hydroxylamine solution in PBS and nebulization with 100 μg of LPS/ml of 0.1% hydroxylamine solution in PBS) are included in each test. The percentage inhibition of the neutrophilia in the substance-treated experimental group is calculated using the following formula: {((LPSC−SC)−(LPSD−SC))/(LPSC−SC)}×100%=% inhibition
SC=control group treated with vehicle and challenged with 0.1% hydroxylamine solution; LPSC=control group treated with vehicle and challenged with LPS (100 μg/ml of 0.1% hydroxylamine solution); LPSD=experimental group treated with substance and challenged with LPS (100 μg/ml of 0.1% hydroxylamine solution)
The test substances are administered 2 hours prior to the LPS provocation, as a suspension in 10% polyethylene glycol 300 and 0.5% 5-hydroxyethyl cellulose orally or per inhalation as a mixture with lactose. The control groups are treated with the vehicle in accordance with the mode of administration used for the test substance.

PDE 4 = experiment: Inhibition of phosphodiesterase 4 (SPA assay, enzyme preparation from human PMNLs); assay type: biochemical; details: cytosolic PDE 4 fraction from human PMNLs; 0.5 μM [3H]-cAMP; 100 μM cGMP
Method: The PDE 4 activity is determined using enzyme preparations from human […] (PMNLs). Human blood (buffy coats) was anticoagulated with citrate. The platelet-rich plasma in the supernatant is separated from the erythrocytes and leucocytes by centrifuging at 700 […]g for 20 minutes at room temperature (RT). The PMNLs for the PDE 4 determination are isolated by means of a subsequent dextran sedimentation followed by a gradient centrifugation using Ficoll-Paque. After the cells have been washed twice, the erythrocytes which are still present are lysed within 6 minutes by adding 10 ml of hypotonic buffer (155 mM NH4Cl, 10 mM NaHCO3, 0.1 mM EDTA, pH=7.4) at 4° C. The PMNLs, which are still intact, are washed a further two times with PBS and lysed by ultrasonication. The supernatant obtained after centrifuging at 48 000×g at 4° C. for one hour contains the cytosolic PDE 4 fraction and is used for the PDE 4 measurements.
The phosphodiesterase activity is measured using a modified Amersham Pharmacia Biotech method, i.e. an SPA (scintillation proximity assay) assay. The reaction mixtures contain buffer (50 mM tris-HCl (pH 7.4), 5 mM MgCl2, 100 μM cGMP), varying concentrations of the inhibitors, and the corresponding enzyme preparation. The reaction is started by adding the substrate, i.e. 0.5 μM [3H]-cAMP. The final volume is 100 μl. Test substances are prepared as stock solutions in DMSO. The concentration of DMSO in the reaction mixture is 1% v/v. This DMSO concentration has no effect on PDE activity. After the reaction has been started by adding the substrate, the samples are incubated at 37° C. for 30 minutes. The reaction is stopped by adding a defined quantity of SPA beads and the samples are measured in a beta counter after one hour. The nonspecific enzyme activity (i.e. the blank) is determined in the presence of 100 μM rolipram and subtracted from the test values. The incubation mixtures for the PDE 4 assay contain 100 μM cGMP in order to inhibit any contamination of PDE 3 which may be present.

For O=C(Nc1c(Cl)cncc1Cl)C(=O)c1cn(Cc2cccc([N+](=O)[O-])c2)c2c(O)cccc12 [Comparative Compound A], the Inhibition of eosinophilia ([1]; 0.1 mg/kg i.t.) was “no effect”, the Inhibition of eosinophilia ([1]; 10 mg/kg i.p.) was 33% and the Inhibition of eosinophilia ([1]; 30 mg/kg p.o.) was 31%. For the same compound, the Inhibition of neutrophilia ([2]; 0.1 mg/kg i.t.) was “no effect”, the Inhibition of neutrophilia ([2]; 1 mg/kg p.o.) was 39% and the IC50 (PDE 4) was 2 nM.
For O=C(Nc1c(Cl)cncc1Cl)C(=O)c1cn(Cc2c(F)cccc2F)c2c(O)cccc12 [Comparative Compound B, N-(3,5-dichloropyridin-4-yl)[1-(2,6-difluorobenzyl)-7-hydroxyindol-3-yl] glyoxylic acid amide], the Inhibition of eosinophilia ([1]; 0.01 mg/kg i.t.) was “no effect”, the Inhibition of eosinophilia ([1]; 0.1 mg/kg i.t.) was 35% and the Inhibition of eosinophilia ([1]; 10 mg/kg i.p.) was 38%. The Inhibition of eosinophilia ([1]; 30 mg/kg p.o.) was 30%, the Inhibition of neutrophilia ([2]; 0.01 mg/kg i.t.) was “no effect” and the Inhibition of neutrophilia ([2]; 0.1 mg/kg i.t.) was 38%. It also gave an Inhibition of neutrophilia ([2]; 1 mg/kg p.o.) of 31% and an IC50 (PDE 4) of 2 nM.
For O=C(Nc1c(Cl)cncc1Cl)C(=O)c1cn(Cc2ccccc2Cl)c2c(O)cccc12 [Comparative Compound C, (N-3,5-dichloropyridin-4-yl)[1-(2-chlorobenzyl)-7-hydroxyindol-3-yl] glyoxylic acid amide], the Inhibition of eosinophilia ([1]; 0.01 mg/kg i.t.) was “no effect”, the Inhibition of eosinophilia ([1]; 0.1 mg/kg i.t.) was 62% and the Inhibition of eosinophilia ([1]; 10 mg/kg i.p.) was 30%. For the same compound, the Inhibition of eosinophilia ([1]; 30 mg/kg p.o.) was 32%, the Inhibition of neutrophilia ([2]; 0.01 mg/kg i.t.) was “no effect” and the Inhibition of neutrophilia ([2]; 0.1 mg/kg i.t.) was 31%. It also gave an Inhibition of neutrophilia ([2]; 1 mg/kg p.o.) of 34% and an IC50 (PDE 4) of 0.6 nM.
In the case of O=C(Nc1c(Cl)cncc1Cl)C(=O)c1cn(Cc2ccc(Cl)cc2[N+](=O)[O-])c2c(O)cccc12 [Compound 1, N-(3,5-dichloropyrdin-4-yl)-[1-(4-chloro-2-nitrobenzyl)-7-hydroxyindol-3-yl]glyoxylic acid amide], the Inhibition of eosinophilia ([1]; 0.001 mg/kg i.t.) is reported as 55%, the Inhibition of eosinophilia ([1]; 10 mg/kg i.p.) is reported as 57% and the Inhibition of eosinophilia ([1]; 30 mg/kg p.o.) is reported as 51%. For the same compound, the Inhibition of neutrophilia ([2]; 0.001 mg/kg i.t.) was 51%, the Inhibition of neutrophilia ([2]; 1 mg/kg p.o.) was 49% and the IC50 (PDE 4) was 0.9 nM.
With O=C(Nc1c(Cl)cncc1Cl)C(=O)c1cn(Cc2c(F)cccc2[N+](=O)[O-])c2c(O)cccc12 [Compound 2, N-(3,5-dichloropyridine-4-yl)[1-(6-fluoro-2-nitrobenzyl)-7-hydroxyindole-3-yl)glyoxylic acid amide] the IC50 (PDE 4) was 0.6 nM and the melting point was 308 to 310 °C.
Cc1ccc(Cn2cc(C(=O)C(=O)Nc3c(Cl)cncc3Cl)c3cccc(O)c32)cc1[N+](=O)[O-] [Compound 3, N-(3,5-dichloropyridine-4-yl)-[7-hydroxy-1-(4-methyl-3-nitrobenzyl)-indol-3-yl]-glyoxylic acid amide] gave an IC50 (PDE 4) of 8 nM.
For Cc1c(Cn2cc(C(=O)C(=O)Nc3c(Cl)cncc3Cl)c3cccc(O)c32)cccc1[N+](=O)[O-] [Compound 4, N-(3,5-dichloropyridine-4-yl)-[7-hydroxy-1-(2-methyl-3-nitrobenzyl)-indol-3-yl]-glyoxylic acid amide], the IC50 (PDE 4) was 2 nM and the melting point was 229 to 232 °C (dec.).
In the case of Cc1ccc([N+](=O)[O-])c(Cn2cc(C(=O)C(=O)Nc3c(Cl)cncc3Cl)c3cccc(O)c32)c1 [Compound 5, N-(3,5-dichloropyridine-4-yl)-[7-hydroxy-1-(5-methyl-2-nitrobenzyl)-indol-3-yl]-glyoxylic acid amide], the IC50 (PDE 4) is reported as 38 nM and the melting point is reported as 297 to 300 °C (dec.).
Work on O=C(Nc1c(Cl)c[n+]([O-])cc1Cl)C(=O)c1cn(Cc2ccc(Cl)cc2[N+](=O)[O-])c2c(O)cccc12 [Compound 6, N-(3,5-dichloro-1-oxo-pyridine-4-yl)-[1-(4-chloro-2-nitrobenzyl)-7-hydroxyindol-3-yl]-glyoxylic acid amide] yielded an IC50 (PDE 4) of 4 nM.
